Laboratory results: article PMC11406233 (Proceedings of the National Academy of Sciences of the …, 2024)
Like-named read-outs stand apart in the source and are kept apart here.

Assays:
SCoV2^WK521A191T [1] = tested on: SCoV2^WK521A191T; parameters: species or system SARS-CoV-2; settings: read-out: EC50 from cell-based assay
SCoV2^WK521A191T [2] = tested on: SCoV2^WK521A191T; parameters: species or system SARS-CoV-2; settings: read-out: EC50 from cell-based assay; remark: listed apart in the source
rgSCoV2WT = test: microbe, parasite or virus in culture; assay type: cell-based; settings: Severe acute respiratory syndrome coronavirus 2, VeroE6/TMPRSS2, read-out: EC50±SD
rgSCoV2E166V = assay type: cell-based, SARS-CoV-2
rgSCoV2L50F/E166V = assay type: cell-based, SARS-CoV-2
[3] = tested on: SCoV2^WK521WT + SCoV2^WK521A191T; assay type: cell-based, SARS-CoV-2
SCoV2^WK521E166V = assay type: cell-based, SARS-CoV-2
M^proE166V [4] = target: T1, M^proE166V (Severe acute respiratory syndrome coronavirus 2, UniProt P0DTD1, E3429V); assay type: biochemical, SARS-CoV-2
M^proE166V [5] = target: T1, M^proE166V; assay type: binding, SARS-CoV-2
[6] = tested on: SCoV2^WK521WT + SCoV2^WK521E166V; assay type: cell-based, SARS-CoV-2

SMILES | EC50 (SCoV2^WK521A191T [1]) | EC50 (SCoV2^WK521A191T [2]) | EC50 (rgSCoV2WT) | EC50 (rgSCoV2E166V) | EC50 (rgSCoV2L50F/E166V) | Pattern of replicability in CSRA [3] | Difference in the EC50 values of NIR and TKB245 (SCoV2^WK521E166V) | Factor of greater binding affinity to MproE166V than nirmatrelvir (M^proE166V [4]) | Complex formation with MproE166V in crystallization (M^proE166V [5]) | SCoV2^WK521E166V population [6] | SCoV2^WK521WT population [6]
COc1cccc2[nH]c(C(=O)N[C@@H](CC(C)C)C(=O)N[C@@H](C[C@@H]3CCNC3=O)C(=O)c3nc4ccccc4s3)cc12 [5h] | > 100 µM | 35 ± 0.08 µM | 13.5 µM | 13.5 ± 0.15 µM | 13.4 ± 0.48 µM | SCoV2^WK521A191T predominated SCoV2^WK521 throughout all the concentrations tested |  |  |  |  | 
CC(C)(C)[C@H](NC(=O)C(F)(F)F)C(=O)N1C[C@H]2[C@@H]([C@H]1C(=O)N[C@@H](C[C@@H]1CCNC1=O)C(=O)c1nc3c(F)cccc3s1)C2(C)C [TKB245] |  |  | 0.78 µM | 6.6 µM | 11.4 µM |  | 207 fold | 6.8 | TKB245 binds to M^proE166V | 100% | 100%
CC(C)(C)[C@H](NC(=O)C(F)(F)F)C(=O)N1C[C@H]2[C@@H]([C@H]1C(=O)N[C@H](C#N)C[C@@H]1CCNC1=O)C2(C)C [nirmatrelvir, reference compound] |  |  | 4.4 µM |  |  |  |  |  |  |  | 
